One assay has as its target T1, human PDHK2 (12-407) (Homo sapiens, UniProt Q15119).
T1 construct: The human PDHK2 (12-407) was produced in E. coli; His-tag (cleaved yes); made in house; host or cells: E. coli
Kind of assay: Isothermal titration calorimetry (ITC) binding. As to conditions: 30° C., pH 7.5. The procedure:
Isothermal Titration Calorimetry
ITC measurements were performed with a VP-ITC micro calorimeter (Microcal, LLC/GE Healthcare Bio-Sciences AB, Uppsala, Sweden). In general titrations were performed by titrating the protein (50 μM) to the test compound (5 μM) in 12 μl injections. All binding experiments were carried out at 30° C. In general the test compounds were diluted form DMSO stock solutions into the measurement buffer with a maximum final concentration of 1% DMSO. The measurement buffer was 20 mM HEPES, 135 mM KCl, 1 mM TCEP, 2 mM MgCl2, 15 mM NaH2PO4, pH 7.5. The human PDHK2 (12-407) was produced in E. coli as his-tagged protein and purified by affinity chromatography. The tag was removed by side specific proteolysis. Before titration the protein buffer was changed to the measurement buffer containing the same DMSO concentration as the test compound dilution. ITC data analysis was performed using Origin 7 calorimetry software from the same supplier. For most measurements a binding model of one binding site was assumed. According to the applied mathematical model it is possible to calculate the binding constant (KA), the observed binding enthalpy (ΔH^obs) as well as the stoichiometry (N) of the formed complex. Preceding analysis the raw data was corrected for the heats of dilution by extrapolating from the saturation value from the end of titration. In order to allow for direct comparison between the respective experimental series and protein preparations the protein concentration was corrected by referencing titrations to a well behaved standard inhibitor. The apparent stoichiometry values defined the fraction of binding competent protein and compensated for relative errors in protein concentration measurements. This corrected protein concentration was used to set up ITC experiment series with test compounds. Any deviations from ideal 1:1 stoichiometry observed here were attributed to errors in compound concentration. This nominal compound concentration was corrected as well to achieve 1:1 stoichiometry in the fit.
In general terms: Isothermal titration calorimetry measures the heat released or taken up as one component is titrated into another.

The target in a further assay is T2, PDHK2 (Homo sapiens, UniProt Q15119).
T2 construct: purchased Carna Bioscience
Kind of assay: Biochemical activity testing of PDHK2: PDC inactivation assay. The conditions noted are these: human rec PDHK2, PDC from porcine heart, ATP 5 μM; read-out: IC50 PDHK2 (enzyme assay). An excerpt:
Biochemical Activity Testing of PDHK2: PDC Inactivation Assay
The biochemical activity assay for PDHK2 is based on the inactivation of PDC through phosphorylation by PDHK2. The assay is run in two steps: the enzymatic PDHK2 reaction in which isolated PDC is phosphorylated by PDHK2 with ATP as co-substrate and the PDC activity assay in which pyruvate and NAD are converted to acetyl-CoA and NADH. The PDC activity correlates to the increase in NADH and thereby is detectable directly via the increasing fluorescence signal (Exc 340 nm, Em 450 nm). Inhibition of PDHK2 results in a lower phosphorylation status and thereby a less decrease in activity of PDC and a stronger increase in NADH fluorescence signal.
The PDC inactivation assay is performed in Greiner 384-well microtiter plates and is used for high throughput screen. 4 μl of PDHK2 (human, rec, Carna Bioscience, 10 ng/μl-137 nM final concentration) and PDC (isolated from porcine heart, Sigma-Aldrich, 20 mU/ml final concentration) are incubated in the absence or presence of the test compound (10 dilution concentrations) for 30 min at room temperature in kinase buffer (15 mM potassium phosphate buffer, pH 7.0, 60 mM KCl, 1.5 mM DTT, 2.5 mM MgCl2, 0.0125% (w/v) BSA, 0.125% Pluronic F-68). The kinase reaction is started by the addition of 4 μl ATP substrate solution (fc 5 μM in kinase buffer). After 30 min incubation at 37° C. 40 μl of PDC reaction solution (100 mM Tris/HCl, pH 7.8, 0.5 mM EDTA, 1 mM MgCl2, 50 mM NaF, 0.25 mM Coenzyme A, 5 mM pyruvate, 1 mM NAD, 5 mM DTT, […] thiamine pyrophosphate) is added. The first fluorescence measurement is performed on a Perkin Elmer Envision (Exc 340 nm, Em 450 nm). The reaction is incubated for 45 min at room temperature. Afterwards a second fluorescence measurement is performed and the PDC activity is calculated by the difference between both measurements. As full value for the PDHK2 assay the inhibitor-free PDHK2 reaction is used. The pharmacological zero value used is DCA (Sigma-Aldrich) in a final concentration of 3 mM. The inhibitory values (IC50) were determined using either the program Symyx Assay Explorer® or Condosseo® from GeneData.

A further assay concerns PDH-Elalpha (pSer300). Kind of assay: Cellular immunofluorescence assay in HEK293T cells. It counts as cell-based. As to conditions: Homo sapiens, HEK-293T, 5 hours incubation, anti-PDH-E1alpha pSer300 immunofluorescence, read-out: IC50 (cell data). The procedure:
Cellular Assay for Determination of Compound Activities
Compound activities were determined in a cellular immunofluorescence assay. Human HEK293T cells were seeded into black 384-well plates with clear bottom and grown overnight.
Next day, test compounds were added to the wells and the plates incubated for 5 hours. Following this, cells were fixed with formaldehyde, permeabilised and blocked. The primary antibody, Anti-PDH-Elalpha (pSer300), AP1064 (Merck Millipore) was added and incubated overnight in the plate wells. Next, cells were washed and the seconday antibody, Alexa Fluor 488, goat anti-rabbit ab (A-11008, Invitrogen) was added together with Hoechst 33258 (H3569, Invitrogen) and incubated for 1 hour in the plate wells. Finally, cells were washed and the plates were measured on the laser scanning cytometer acumen hci (TTpLabtech).
The raw data were normalized against a pharmacological inhibitor control and dose response curves were generated by plotting the percent effect values using the software package Genedata screener (Genedata).

For orientation: Kd means the equilibrium constant for the complex coming apart. Low values mean a tighter complex, high ones a looser complex. In general, IC50 refers to the point on the concentration scale where inhibition reaches its midpoint. The molecule `CC1CN(C(=O)[C@@](C)(O)C(F)(F)F)CCC1c1ccnn1-c1ccc(F)cc1F` (mixture of isomers) [Compound A31, (R)-1-{4-[2-(2,4-difluoro-phenyl)-2H-pyrazol-3-yl]-3-methyl-piperidin-1-yl}-3,3,3-trifluoro-2-hydroxy-2-methyl-propan-1-one] displayed a Kd at human PDHK2 (12-407) below 300 nM. In addition, the IC50 on PDHK2 and in the assay on PDH-Elalpha (pSer300) was below 300 nM each time.

Take `COc1ccc(-n2nccc2C2CCN(C(=O)C(C)(O)C(F)(F)F)CC2)c(F)c1` (racemic) [Compound A30, rac-3,3,3-Trifluoro-1-{4-[2-(2-fluoro-4-methoxy-phenyl)-2H-pyrazol-3-yl]-piperidin-1-yl}-2-hydroxy-2-methyl-propan-1-one]: at human PDHK2 (12-407), the Kd is below 300 nM. Moreover, the IC50 on PDHK2 is below 300 nM; with PDH-Elalpha (pSer300), 300 to 3000 nM.

Turning to `Cc1ccc(-n2nccc2C2CCN(C(=O)[C@@](C)(O)C(F)(F)F)CC2)cc1` [Compound A1, (R)-3,3,3-trifluoro-2-hydroxy-2-methyl-1-[4-(2-p-tolyl-2H-pyrazol-3-yl)-piperidin-1-yl]-propan-1-one], the Kd at human PDHK2 (12-407) is below 300 nM. The figures for the IC50 on PDHK2 and in the assay on PDH-Elalpha (pSer300) were below 300 nM and 300 to 3000 nM, respectively.

The molecule `COc1ccc(-n2nccc2C2CCN(C(=O)[C@@](C)(O)C(F)(F)F)CC2)cc1` [Compound A2, (R)-3,3,3-Trifluoro-2-hydroxy-1-{4-[2-(4-methoxy-phenyl)-2H-pyrazol-3-yl]-piperidin-1-yl}-2-methyl-propan-1-one] displayed a Kd at human PDHK2 (12-407) below 300 nM. The half-maximal inhibitory concentration (IC50) was below 300 nM at PDHK2 and 300 to 3000 nM with PDH-Elalpha (pSer300).

On to `C[C@@](O)(C(=O)N1CCC(c2ccnn2-c2ccccc2C#N)CC1)C(F)(F)F` [Compound A3, 2-{5-[1-((R)-3,3,3-Trifluoro-2-hydroxy-2-methyl-propionyl)-piperidin-4-yl]-pyrazol-1-yl}-benzonitrile], for which the Kd on human PDHK2 (12-407) is 300 to 3000 nM. The concentration for half-maximal inhibition (IC50) in the assay with PDH-Elalpha (pSer300) lay within 300 to 3000 nM.

Consider `COc1ccccc1-n1nccc1C1CCN(C(=O)[C@@](C)(O)C(F)(F)F)CC1` [Compound A7, (R)-3,3,3-Trifluoro-2-hydroxy-1-{4-[2-(2-methoxy-phenyl)-2H-pyrazol-3-yl]-piperidin-1-yl}-2-methyl-propan-1-one], for which the Kd on human PDHK2 (12-407) was in the range of 300 to 3000 nM. Further, the IC50 in the assay on PDH-Elalpha (pSer300) was below 300 nM.

Take `C[C@H]1CN(C(=O)[C@@](C)(O)C(F)(F)F)CC[C@H]1c1ccnn1-c1ccc(F)cc1F` [Compound A32, (R)-1-{(3R,4R)-4-[2-(2,4-difluoro-phenyl)-2H-pyrazol-3-yl]-3-methyl-piperidin-1-yl}-3,3,3-trifluoro-2-hydroxy-2-methyl-propan-1-one]: the 50% inhibitory concentration (IC50) was below 300 nM on PDHK2 and 300 to 3000 nM in the assay on PDH-Elalpha (pSer300).

As for `C[C@@H]1CN(C(=O)[C@@](C)(O)C(F)(F)F)CC[C@@H]1c1ccnn1-c1ccc(F)cc1F` [Compound A33, (R)-1-{(3S,4S)-4-[2-(2,4-difluoro-phenyl)-2H-pyrazol-3-yl]-3-methyl-piperidin-1-yl}-3,3,3-trifluoro-2-hydroxy-2-methyl-propan-1-one], the IC50 on PDHK2 and in the assay on PDH-Elalpha (pSer300) was below 300 nM each time.

Turning to `C[C@@](O)(C(=O)N1CCC(c2nccn2-c2ccc(F)cc2)CC1)C(F)(F)F` [Compound A67, (R)-3,3,3-Trifluoro-1-{4-[1-(4-fluoro-phenyl)-1H-imidazol-2-yl]-piperidin-1-yl}-2-hydroxy-2-methyl-propan-1-one], the Kd on human PDHK2 (12-407) lay in the range of 300 to 3000 nM. The IC50 at PDHK2 was in the range of 300 to 3000 nM.

`Cc1ccc(-n2ccnc2C2CCN(C(=O)[C@@](C)(O)C(F)(F)F)CC2)cc1` [Compound A68, (R)-3,3,3-Trifluoro-2-hydroxy-2-methyl-1-[4-(1-p-tolyl-1H-imidazol-2-yl)piperidin-1-yl]-propan-1-one] came in with a Kd at human PDHK2 (12-407) of 300 to 3000 nM. Further, the IC50 at PDHK2 was in the range of 300 to 3000 nM.

Molecule `COc1ccc(-n2ccnc2C2CCN(C(=O)[C@@](C)(O)C(F)(F)F)CC2)cc1` [Compound A70, (R)-3,3,3-Trifluoro-2-hydroxy-1-{4-[1-(4-methoxy-phenyl)-1H-imidazol-2-yl]-piperidin-1-yl}-2-methyl-propan-1-one] had a Kd on human PDHK2 (12-407) of 300 to 3000 nM. The IC50 on PDHK2 lay in the range of 300 to 3000 nM.

For `C[C@@](O)(C(=O)N1CCC(c2nncn2-c2ccc(F)cc2)CC1)C(F)(F)F` [Compound A71, (R)-3,3,3-Trifluoro-1-{4-[4-(4-fluoro-phenyl)-4H-[1,2,4]triazol-3-yl]-piperidin-1-yl}-2-hydroxy-2-methyl-propan-1-one], on human PDHK2 (12-407), the Kd lay within 300 to 3000 nM. For the same molecule, the IC50 at PDHK2 was 300 to 3000 nM.

`C[C@@](O)(C(=O)N1CCC(c2nncn2-c2ccccc2)CC1)C(F)(F)F` [Compound A72, (R)-3,3,3-Trifluoro-2-hydroxy-2-methyl-1-[4-(4-phenyl-4H-[1,2,4]triazol-3-yl)piperidin-1-yl]-propan-1-one] returned a Kd on human PDHK2 (12-407) of 300 to 3000 nM. Also, at PDHK2, the IC50 lay in the range of 300 to 3000 nM.

`C[C@@](O)(C(=O)N1CCC(c2ccnn2C2CC2)CC1)C(F)(F)F` [Compound A74, (R)-1-[4-(2-Cyclopropyl-2H-pyrazol-3-yl)-1-piperidyl]-3,3,3-trifluoro-2-hydroxy-2-methyl-propan-1-one] registered a Kd at human PDHK2 (12-407) below 300 nM. Moreover, the IC50 at PDHK2 was in the range of 300 to 3000 nM.

Turning to `COc1ccc(-n2ccc(C3CCN(C(=O)[C@@](C)(O)C(F)(F)F)CC3)n2)nn1` [Compound A105, (R)-3,3,3-Trifluoro-2-hydroxy-1-{4-[1-(6-methoxy-pyridazin-3-yl)-1H-pyrazol-3-yl]-piperidin-1-yl}-2-methyl-propan-1-one], the Kd on human PDHK2 (12-407) lay in the range of 300 to 3000 nM. The IC50 at PDHK2 lay in the range of 300 to 3000 nM.

With `C[C@H]1CN(C(=O)[C@@](C)(O)C(F)(F)F)CC[C@H]1c1ccnn1-c1ccc(F)cc1` [Compound A108, (R)-3,3,3-Trifluoro-1-{(3R,4R)-4-[2-(4-fluoro-phenyl)-2H-pyrazol-3-yl]-3-methyl-piperidin-1-yl}-2-hydroxy-2-methyl-propan-1-one], on human PDHK2 (12-407), the dissociation constant Kd fell in the range of 300 to 3000 nM. Besides, the IC50 on PDHK2 was 300 to 3000 nM.

`C[C@@](O)(C(=O)N1CCC(c2ccnn2-c2ccon2)CC1)C(F)(F)F` [Compound A122, (R)-3,3,3-Trifluoro-2-hydroxy-1-[4-(2-isoxazol-3-yl-2H-pyrazol-3-yl)-piperidin-1-yl]-2-methyl-propan-1-one] came in with a dissociation constant (Kd) at human PDHK2 (12-407) of 300 to 3000 nM. Besides, the IC50 on PDHK2 was in the range of 300 to 3000 nM.

The record behind these values is patent publication US9751861B2, “N1-(3,3,3-trifluoro-2-hydroxo-2-methylpropionyl)-piperidine derivatives as inhibitors of pyruvate dehydrogenase kinase” (MERCK PATENT GMBH, priority 2013, dated 2017).
